Test results taken from patent US10308938B2, “Compositions and methods to activate or inhibit toll-like receptor signaling” (priority 2014, dated 2019).
Entries after “also recorded” stand apart in the source; their conditions may differ.

Legend:
CD4^+ T cells [1] = experiment: Cytokine secretion by stimulated CD4+ T cells, ELISA; format: cell-based, human; details: day 3 after stimulation
From the text: (§1) Cell activation and intracellular staining.
(§2) Enzyme-linked immunosorbent assay.

CD4^+ T cells [2] = experiment: Cytokine gene expression in stimulated CD4+ T cells, TaqMan real-time PCR; format: cell-based, human; details: 12 hours after activation
From the text: (§3) Quantification of mRNA expression levels by RT-PCR. RNA was isolated using QIAGEN RNeasy Micro Plus Kit (QIAGEN, Valencia, Calif.), following manufacturer's guidelines and converted to cDNA by reverse transcription (RT) with random hexamers and Multiscribe RT (TQMN, Reverse Transcription Reagents; Applied Biosystems, Foster City, Calif.). For mRNA gene expression assays, probes were purchased from Applied Biosystems (Table 2) and the reactions were set up following manufacturer's guidelines and run on a StepOne Real-Time PCR System (Applied Biosystems). Values are represented as the difference in Ct values normalized to β2-microglobulin for each sample as per the following formula: Relative RNA expression=(2^−dCt)×1000.

CD4^+ T cells [3] = experiment: Intracellular cytokine staining after PMA and ionomycin restimulation; format: cell-based, human; details: increasing doses of IMQ; day 4, 4 hour PMA and ionomycin
Protocol: Cell activation and intracellular staining. T populations were stimulated with 1 μg/ml anti-CD3, 1 μg/ml anti-CD28 and 10 U/ml IL-2 in the presence or absence of TLR ligands. […] For both extracellular and intracellular stainings, LIVE/DEAD reagent (Molecular Probes) was used to exclude dead cells before surface staining. […] Samples were run on a BD Fortessa instrument and analyzed with FlowJo (TreeStar).

CD4^+ T cells [4] = experiment: Expression of activation markers on stimulated CD4+ T cells; format: cell-based, human; details: 48 hours after activation
From the text: as §1

CD4^+ T cells [5] = experiment: Conversion into regulatory T cells (Foxp3 expression, IL-10 secretion); format: cell-based, human
From the text: as §1, §2

CD4^+ T cells [6] = experiment: shRNA-transduced CD4+ T cells stimulated in the presence or absence of IMQ; format: cell-based, human
From the text: as §2, §3
Gene silencing by lentiviral transduction. Lentiviral particles encoding shRNAs were obtained from Sigma-Aldrich (NFAT1 clone TRCN0000016144, TLR7 clones 3 and 4 TRCN0000056973 and TRCN0000056974, respectively). 5×10^4 CD4^+ T cells per well were stimulated with plate-bound anti-CD3 (1 μg/ml) and soluble anti-CD28 (1 μg/ml) for 12 h before transduction. Cells were then transduced with viral particles containing a vector expressing the indicated specific shRNA (NFAT1 or TLR7) or a non-target shRNA as a control at a multiplicity of infection of 4. All constructions contained the coding sequence for GFP. After 5 days in culture, transduced cells were sorted based on GFP expression and the efficiency of gene silencing was determined by TaqMan real-time PCR and protein staining.

CD4^+ T cells [7] = experiment: Intracellular calcium measurement (INDO-1AM); format: cell-based, human
Protocol: Intracellular calcium measurements. Ex vivo isolated CD4^+ T cells were labeled with 5 μM INDO-1AM for one hour at 37° C. in PBS, 1 mM Ca^2+. Cells were washed to remove traces of INDO-1AM, resuspended in buffer at 10^6 cells/ml and incubated for 30 minutes at 37° C. before analysis. When necessary, IRS661 was added at the indicated concentration during the 30 minute incubation. For acquisition, the sample was acquired for approximately 3 minutes to obtain basal levels of calcium and subsequently IMQ or other reagents were added at the indicated concentrations. Samples were acquired for a minimum of 10 minutes on a BD Fortessa instrument and analysed with FlowJo software.

CD4^+ T cells [8] = experiment: Anergy-related gene expression, TaqMan real-time PCR; format: cell-based, human
From the text: as §3
To examine whether TLR7 stimulation and subsequent NFAT dephosphorylation induces the expression of anergy-related genes, CD4^+ T cells were incubated for 2-16 hours with IMQ in the presence or absence of the TLR7 inhibitory sequence IRS661 and RNA was isolated to examine the hypothesis that TLR7 engagement induced expression of anergy-related genes previously described. As a control for anergy-related gene expression, CD4^+ T cells were incubated with either ionomycin and PMA or ionomycin alone. […] The effect observed in the regulation of these genes was TLR7-specific, as preincubation of CD4^+ T cells with IRS661 before IMQ treatment abrogated the increase in anergy-related gene expression.

memory T cells = experiment: IMQ pretreatment, washout, rest and restimulation with anti-CD3 and anti-CD28; format: cell-based, human; details: IMQ 2 hours, 12 hours rest, anti-CD3 and anti-CD28
Protocol: as §2
To determine if pretreatment of CD4^+ T cells with IMQ would be sufficient to diminish their subsequent cytokine secretion and proliferative response to a full stimulation, memory T cells were pre-treated with IMQ for 2 hours and rested for 12 hours after washout to remove traces of IMQ and then stimulated with anti-CD3 and anti-CD28 for 3 days.

HIV-1NL-D = experiment: HIV-1 in vitro infection of CD4+ T cells; format: cell-based; details: treatment before infection, MOI 0.001
Protocol: Preparation of HIV-1 virus stocks. HIV-1 proviral DsRed-tagged DNA pNL-D (derived from the prototype HIV-1 proviral DNA pNL432) was kindly provided by Dr. Yasuko Tsunetsugu-Yokota. 293T cells were used to prepare viral stocks following published protocols with minor modifications. In brief, 293T cells were plated at 0.5×10^6/well in 12-well plates and transfected with 2 μg pNL-D using Lipofectamine 2000 (Invitrogen) for 48 hours. Culture supernatant was treated with benzonase (1U/ml) for 30 minutes at 37 C, cleared by filtration and titrated on 293T cells. Stocks were stored at −80 C.
HIV-1 in vitro infection. CD4^+ T cells were stimulated with anti-CD3 (1 μg/ml) and anti-CD28 (1 μg/ml) for 48 hours and subsequently infected with HIV-1 at a MOI of 0.001 (concentration within the physiological range). Viability and cytokine secretion was measured every 48 hours for a total of 11 days after infection.
For HIV-1 infection on TLR7-deficient cells, CD4^+ T cells were stimulated as above and transduced with the corresponding lentiviral particles. 48 hours after transduction, the cells were infected with HIV-1NL-D at a MOI of 0.001. Viability and frequency of HIV-1-infected cells were measured at different time points by LIVE/DEAD cell dye staining and fixation with 1% PFA (to avoid DsRed signal loss). For intracellular staining after infection, the cells were restimulated with PMA and Ionomycin in the presence of GolgiStop for 4 hours and the staining was performed as recommended by Grupillo et al.

[9] = NFAT shRNA-transduced cells, 3 days
[10] = TLR7 shRNA-transduced cells, 3 days
[11] = non-target shRNA-transduced cells, 3 days, listed as IMQ

CC(C)Cn1cnc2c(N)nc3ccccc3c21 [Imiquimod]
IFNγ secretion (CD4^+ T cells [1]): dramatically reduced | IL-2 secretion (CD4^+ T cells [1]): decrease | IL-4 secretion (CD4^+ T cells [1]): decrease | IL-17 secretion (CD4^+ T cells [1]): dramatically reduced | IFNγ secretion (CD4^+ T cells [1]; listed as IMQ): decrease | IL-17 secretion (CD4^+ T cells [1]; listed as IMQ): decrease | induction of IFNγ gene expression (CD4^+ T cells [2]): significant decrease | induction of IL-2 gene expression (CD4^+ T cells [2]): significant decrease | induction of IL-4 gene expression (CD4^+ T cells [2]): significant decrease | frequency of cytokine-producing cells (CD4^+ T cells [3]): diminished in a dose-dependent manner | expression of activation marker CD25 (CD4^+ T cells [4]): inhibited | expression of activation marker CD69 (CD4^+ T cells [4]; listed as IMQ): inhibited; also recorded: decrease | expression of activation marker CD137 (CD4^+ T cells [4]; listed as IMQ): inhibited; also recorded: decrease | IL-10 secretion (CD4^+ T cells [5]; ELISA day 3): neither Foxp3 expression (FIG. 11B-11C) or IL-10 secretion was increased | Foxp3 expression (CD4^+ T cells [5]; day 4): neither Foxp3 expression (FIG. 11B-11C) or IL-10 secretion was increased | NFAT1 gene expression (CD4^+ T cells [6]; 24 hours after stimulation): did not have an effect | IFNγ production (CD4^+ T cells [6]; [9]): not affected | IL-2 production (CD4^+ T cells [6]; [9]): not affected | IMQ-induced decrease of IFNγ secretion (CD4^+ T cells [6]; [10]): abolished | IMQ-induced decrease of IL-2 secretion (CD4^+ T cells [6]; [10]): abolished | IFNγ secretion (CD4^+ T cells [6]; [11]): decrease; also recorded: significantly reduced | IL-2 secretion (CD4^+ T cells [6]; [11]): decrease; also recorded: significantly reduced | duration of the increase in intracellular calcium concentration (CD4^+ T cells [7]): at least 20 minutes | intracellular calcium concentration (CD4^+ T cells [7]; INDO-1AM ratio over time): significant and sustained (maintained for at least 20 minutes, FIGS. 23A and 23B) increase | expression of Sirt1, Itch, Cblb, Dgka, Egr2 and Egr3 (CD4^+ T cells [8]; IMQ treatment, 2 hours): all of them but Egr2 showed a significant upregulation | expression of anergy-related genes (CD4^+ T cells [8]; NFAT1-deficient cells vs non-target transduced, IMQ 2 hours): failed to upregulate | expression of 12 anergy-related genes (CD4^+ T cells [8]; compared to control and PMA and ionomycin): Ten of the 12 anergy-related genes examined were significantly upregulated | IFNγ production after restimulation (memory T cells): significantly decreased | IL-2 production after restimulation (memory T cells): significantly decreased | frequency of HIV-1-infected CD4+ T cells (HIV-1NL-D): directly correlated with the concentration of IMQ used
